Reference: patent US7772425B2, “Vitamin D receptor modulators” (Eli Lilly and Company, priority 2002, dated 2010)
Several values for one entry are separate records, joined by “and”; a condition that tells them apart may be missing. Equal entries are not always repeated. Where two headings read alike, the source gives them in different places.

Columns and labels:
[1] = test system: rat osteocalcin promoter; assay: OCN (osteocalcin) promoter assay in RG-15 (ROS 17/2.8) cells; type: cell-based; conditions: 48 hr treatment, luciferase
Protocol: 3. The OCN (Osteocalcin) Promoter Assay
The OCN Promoter Assay is an indicator and marker for osteoporosis. […] Preferred assay results are less than 50 nM.
(3) Materials and Method for The OCN Promoter Assay:
The activation of osteocalcin by VDR ligands was evaluated in a rat osteoblast-like cell line RG-15 (ROS 17/2.8) stably expressing rat osteocalcin promoter fused with luciferase reporter gene. […] Confluent RG-15 cells maintained in DMEM/F-12 medium (3:1) containing 5% FBS, 300 μg/ml G418 and at 37° C. under 5% CO2/95% air atmosphere were trypsinized (0.25% trypsin) and plated into white opaque 96-well cell culture plates (25000 cells/well). After 24 hr, cells (in DMEM/F-12 medium+2% FBS) were treated with various concentrations of compounds, dissolved in DMSO. The final DMSO concentration remained at 0.01% (v/v). After 48 hr treatment, the medium was removed, cells were lysed with 50 μl of lysis buffer (From Luciferase reporter assay system, Roche Diagnostics, Indianapolis, Ind.) and assayed for luciferase activity using the Luciferase Reporter Gene Assay kit from Boehringer Mannheim as per manufacturer's specifications.

[2] = test system: KERtr cells (Human skin keratinocyte); assay: Keratinocyte proliferation assay; type: cell-based; conditions: BrdU incorporation, read-out: Kera. Prolif. IC50
Protocol: 5. The Keratinocyte Proliferation Assay
This Assay is indicative for the treatment of psoriasis.
(5) The Keratinocyte Proliferation Assay:
KERtr cells (Human skin keratinocyte transformed with a retrovirus vector, obtained from ATCC) were plated in 96-well flat-bottomed plates (3000 cells/well) in 100 μl keratinocyte serum free medium supplemented with bovine pituitary extract in the absence of EGF (Life Technologies, Rockville, Md.) and incubated at 37° C. for two days. The cells were treated with various concentrations of VDR ligands (ten-fold serial dilution from 10,000 nM to 0.1 nM in triplicate), dissolved in 100 μl keratinocyte serum free medium supplemented with bovine pituitary extract in the absence of EGF and incubated at 37° C. for 72 hr. BrdU (5-bromo-2′-deoxyuridine) incorporation was analyzed as a measure of DNA replication (Cell proliferation ELISA kit, Roche Diagnostics, Indianapolis, Ind.) and absorbance was measured at 405 nm. Potency values (IC50) values were determined as the concentration (nM) of compound that elicited a half-maximal response.

[3] = test system: female DBF mice; assay: Mouse hypercalcemia assay; type: in vivo; conditions: orally via gavage for 6 days; serum ionized calcium 6 hours after last dosing
Source text: 4. The Mouse Hypercalcemia Assay
(4) Materials and Method for The Mouse Hypercalcemia Assay: […]

[4] = test system: IL-10; assay: human IL-10 induction assay in PBMCs; type: cell-based; conditions: TPA/PHA treated human PBMCs, IL-10 immunoassay of supernatant
Source text: The evaluation of the novel compounds of the invention for psoriasis is done using the Keratinocyte Proliferation Assay in combination with other assays that measure inhibition of IL-2 production and stimulation of IL-10 production in peripheral blood mononuclear cells (PBMCs).
6. The IL-10 Induction Assay
This is an in vitro efficacy assay for psoriasis, abscess and adhesion. Psoriasis involves both keratinocytes and immune cells. IL-10 is a unique cytokine because it is anti-inflammatory and immunosuppressive. This assay tells us whether a VDRM is able to function as an agonist in PBMCs (primary blood mononuclear cells) or not. A lower EC50 value is desirable in this assay since a compound with a lower EC50 value will be a better agonist in PBMCs.
(6) Materials and Method for human IL-10 Induction Assay:
Isolation of peripheral blood mononuclear cells (PBMCs):
• A. Collect 50 ml of human blood and dilute with media, RPMI-1640. • B. Prepare sterile tubes with ficol. • C. Add diluted blood to tubes. • D. Centrifuge. • E. Discard the top layer and collect the cells from middle layer. • F. Divide all cells into four tubes and add media. • G. Centrifuge. • H. Aspirate off media and resuspend. • I. Collect all cells • J. Centrifuge. at 1200 rpm for 10 minutes. • K. Resuspend in RPMI-1640 with 2% FBS and count cells Stimulation of PBMC: • L. Prepare TPA in DMSO. • M. Dissolve PHA in water. • N. Plate TPA/PHA treated PBMCs in well plates. • O. Incubate. Treatment: • P. Prepare all compound dilutions in plain RPMI-1640 media. • Q. Add diluted compound. • R. Incubate. Sample Collection and assay: • S. Remove all the cells by centrifugation and assay the supernatant for IL-10 by immunoassay. • 1) T. Perform IL-10 assay using anti-human IL-10 antibody coated beads, as described by the manufacturer (Linco Research Inc., St. Charles, Mo.).

[5] = Homo sapiens, Keratinocyte, 72 h

SMILES: CCC(CC)(c1ccc(OC(C)C(O)C(C)(C)C)c(C)c1)c1ccc(C(=O)OC)c(C)c1 (single isomer, unassigned) [Ex. 10Db, 3′-[4-(2-hydroxy-1,3,3-trimethylbutoxy)-3-methylphenyl]-3′-[4-methoxycarbonyl-3-methylphenyl]pentane]
- EC50 [1]: 15 nM
- IC50 ([2]; 72 hr): 1000 nM

SMILES: CCC(CC)(c1ccc(OCC(O)C(C)(C)C)c(C)c1)c1ccc(C(=O)NCCS(C)(=O)=O)c(C)c1 (single isomer, unassigned) [Ex. 15A, 4-{1-ethyl-1-[4-(2-hydroxy-3,3-dimethylbutoxy)-3-methylphenyl]propyl}-N-(2-methanesulfonylethyl)-2-methylbenzamide]
- EC50 [1]: 35 nM and 43 nM
- Mouse Hypercal [3]: 1500 µg/kg/day
- IC50 [2, 5]: 117 nM

SMILES: CCC(CC)(c1ccc(OCC(O)C(C)(C)C)c(C)c1)c1ccc(C(=O)N(C)CC(=O)O)c(C)c1 (single isomer, unassigned) [Ex. 18, [(4-{1-ethyl-1-[4-(2-hydroxy-3,3-dimethyl-butoxy)-3-methyl-phenyl]-propyl}-2-methyl-benzoyl)-methyl-amino]-acetic acid]
- Mouse Hypercal [3]: 1000 µg/kg/day
- IC50 ([2]; 72 hr): 1000 nM
- IC50 [4]: 47 nM

SMILES: CCC(CC)(c1ccc(OCC(O)C(C)(C)C)c(C)c1)c1ccc(C(=O)NC(C)(C)C(=O)O)c(C)c1 (single isomer, unassigned) [Ex. 20B, 2-(4-{1-Ethyl-1-[4-(2-hydroxy-3,3-dimethyl-butoxy)-3-methyl-phenyl]-propyl}-2-methyl-benzoylamino)-2-methyl-propionic acid]
- Mouse Hypercal [3]: 300 µg/kg/day
- IC50 [2, 5]: 3 nM
- IC50 ([4]; Homo sapiens, PBMC): 4 nM

SMILES: CCC(CC)(c1ccc(C(=O)O)cc1)c1ccc(OCC(O)C(C)(C)C)c(C)c1 (single isomer, unassigned) [Ex. 22, 4-{1-Ethyl-1-[4-(2-hydroxy-3,3-dimethylbutoxy)-3-methylphenyl]-propyl}benzoic acid]
- Mouse Hypercal [3]: 1000 µg/kg/day
- IC50 ([2]; 72 hr): 4 nM
- IC50 ([4]; Homo sapiens, PBMC): 39 nM

SMILES: CCC(CC)(c1ccc(C(=O)O)cc1)c1ccc(OCC(O)C(C)(C)C)c(C)c1 (single isomer, unassigned) [Ex. 23, 4-{1-Ethyl-1-[4-(2-hydroxy-3,3-dimethylbutoxy)-3-methylphenyl]-propyl}benzoic acid]
- Mouse Hypercal [3]: 3000 µg/kg/day
- IC50 ([2]; 72 hr): 40 nM
- IC50 [4]: 27 nM

SMILES: CCC(CC)(c1ccc(OC(C)C(O)C(C)(C)C)c(C)c1)c1ccc(C(=O)Nc2nnn[nH]2)c(C)c1 (single isomer, unassigned) [Ex. 29, 3′-[4-(2-hydroxy-1,3,3-trimethylbutoxy)-3-methylphenyl]-3′-[4-(tetrazol-5-ylaminocarbonyl)-3-methylphenyl]pentane]
- Mouse Hypercal [3]: 3000 µg/kg/day
- IC50 ([2]; 72 hr): 49 nM
- IC50 ([4]; Homo sapiens, PBMC): 153 nM

SMILES: CCC(CC)(c1ccc(OC(C)C(O)C(C)(C)C)c(C)c1)c1ccc(C(=O)Nc2nnn[nH]2)c(C)c1 (single isomer, unassigned) [Ex. 30, 3′-[4-(2-hydroxy-1,3,3-trimethylbutoxy)-3-methylphenyl]-3′-[4-(tetrazol-5-ylaminocarbonyl)-3-methylphenyl]pentane]
- Mouse Hypercal [3]: 1000 µg/kg/day
- IC50 ([2]; 72 hr): 20 nM
- IC50 [4]: 123 nM

SMILES: CCC(CC)(c1ccc(OC(C)C(O)C(C)(C)C)c(C)c1)c1ccc(C(=O)NCC(=O)O)c(C)c1 (single isomer, unassigned) [Ex. 32, 3′-[4-(2-hydroxy-1,3,3-trimethylbutoxy)-3-methylphenyl]-3′-[4-(carboxymethylaminocarbonyl)-3-methylphenyl]pentane]
- Mouse Hypercal [3]: 1000 µg/kg/day
- IC50 ([2]; 72 hr): 1000 nM
- IC50 [4]: 106 nM

SMILES: CCC(CC)(c1ccc(C(=O)O)cc1)c1ccc(OCC(O)C(C)(C)C)c(Cl)c1 (single isomer, unassigned) [Ex. 36, 3′-[3-chloro-4-(2-hydroxy-3,3-dimethylbutoxy)phenyl]-3′-[4-carboxyphenyl]pentane]
- Mouse Hypercal [3]: >300 µg/kg/day
- IC50 ([2]; 72 hr): 139 nM

SMILES: CCC(CC)(c1ccc(OC(C)C(O)C(C)(C)C)c(C)c1)c1ccc(C(=O)N(C)CC(=O)O)c(C)c1 (single isomer, unassigned) [Ex. 53, [(4-{1-Ethyl-1-[4-(2-hydroxy-1,3,3-trimethyl-butoxy)-3-methyl-phenyl]-propyl}-2-methyl-benzoyl)-methyl-amino]-acetic acid]
- Mouse Hypercal [3]: >3000 µg/kg/day
- IC50 ([2]; 72 hr): 224 nM

SMILES: CCC(CC)(c1ccc(OCC(=O)C(C)(C)C)c(C)c1)c1ccc(OCC(=O)C(C)(C)C)c(C)c1 [DD, reference compound]
- EC50 ([1]; Rattus norvegicus, 48 h): 31.1 nM
- Mouse Hypercal [3]: 1000 µg/kg/day
- IC50 [2, 5]: 1060 nM

SMILES: CCC(CC)(c1ccc(OCC(O)C(C)(C)C)c(C)c1)c1ccc(C(=O)NS(C)(=O)=O)c(C)c1 (stereo not shown) [Ex. 5]
- EC50 ([1]; Rattus norvegicus, 48 h): 42 nM
- Mouse Hypercal [3]: 100 µg/kg/day
- IC50 [2, 5]: 375 nM

SMILES: CCC(CC)(c1ccc(CCC(=O)N(C)C)c(C)c1)c1ccc(OCC(=O)C(C)(C)C)c(C)c1 [Ex. 7, 3′-[4-(2-oxo-3,3-dimethylbutoxy)-3-methylphenyl]-3′-[4-(2-dimethylcarbamoylethyl)-3-methylphenyl]pentane]
- EC50 ([1]; Rattus norvegicus, 48 h): 4 nM
- IC50 [2, 5]: 18 nM

SMILES: CCC(CC)(c1ccc(CCC(=O)N(C)C)c(C)c1)c1ccc(OCC(O)C(C)(C)C)c(C)c1 (stereo not shown) [Ex. 8, 3′-[4-(2-hydroxy-3,3-dimethylbutoxy)-3-methylphenyl]-3′-[4-(2-dimethylcarbamoylethyl)-3-methylphenyl]pentane]
- Mouse Hypercal [3]: 100 µg/kg/day
- IC50 [2, 5]: 330 nM

SMILES: CCC(CC)(c1ccc(/C=C/C(=O)N(C)C)c(C)c1)c1ccc(OCC(O)C(C)(C)C)c(C)c1 (stereo not shown) [Ex. 9, 3′-[4-(2-hydroxy-3,3-dimethylbutoxy)-3-methylphenyl]-3′-[4-(2-dimethylcarbamoyl-t-ethylidene)-3-methylphenyl]pentane]
- EC50 [1]: 6 nM
- EC50 ([1]; Rattus norvegicus, 48 h): 7 nM
- IC50 [2, 5]: 985 nM

SMILES: CCC(CC)(c1ccc(OCC(=O)C(C)(C)C)c(C)c1)c1ccc(C(=O)O)c(C)c1 [Ex. 17, 4-{1-[4-(3,3-dimethyl-2-oxobutoxy)-3-methylphenyl]-1-ethylpropyl}-2-methylbenzoic acid]
- Mouse Hypercal [3]: >3000 µg/kg/day
- IC50 [2, 5]: 1000 nM

SMILES: CCC(CC)(c1ccc(OC(C)C(O)C(C)(C)C)c(C)c1)c1ccc(C(=O)N[C@@H](C)C(=O)O)c(C)c1 (stereo partly shown) [Ex. 47, (L)-2-(4-{1-Ethyl-1-[4-(2-hydroxy-1,3,3-trimethyl-butoxy)-3-methyl-phenyl]-propyl}-2-methyl-benzoylamino)-propionic acid]
- Mouse Hypercal [3]: 3000 µg/kg/day
- IC50 [2, 5]: 1000 nM

SMILES: CCC(CC)(c1ccc(OC(C)C(O)C(C)(C)C)c(C)c1)c1ccc(C(=O)N[C@H](C)C(=O)O)c(C)c1 (stereo partly shown) [Ex. 48, (D)-2-(4-{1-ethyl-1-[4-(2-hydroxy-1,3,3-trimethyl-butoxy)-3-methyl-phenyl]-propyl}-2-methyl-benzoylamino)-propionic acid]
- Mouse Hypercal [3]: <1000 µg/kg/day
- IC50 ([2]; 72 hr): 1000 nM
